Measured values taken from patent publication US6214841A, “Antithrombotic compound” (Eli Lilly and Company, priority 1999, dated 2001).

How the values were obtained:
[1] = molecular target: human thrombin; assay: Inhibition of thrombin amidase activity, chromogenic substrate (Kass); assay type: biochemical; settings: average of 3 assays; read-out: Kass, inhibitor of thrombin (converted)
Method: For example, thrombin hydrolyzes N-benzoyl-L-phenylalanyl-L-valyl-L-arginyl-p-nitroanilide, N-benzoyl-L-Phe-L-Val-L-Arg-p-nitroanilide.
The assay is carried out by mixing 50 μL buffer (0.03M Tris, 0.15M NaCl, pH 7.4) with 25 μL of human thrombin solution (purified human thrombin, Enzyme Research Laboratories, South Bend, Indiana, at 8 NIH units/mL) and 25 μL of test compound in a solvent (50% aqueous methanol (v:v)). Then 150 μL of an aqueous solution of the chromogenic substate (at 0.25 mg/mL) are added and the rates of hydrolysis of the substrate are measured by monitoring the reactions at 405 nm for the release of p-nitroaniline. Standard curves are constructed by plotting free thrombin concentration against hydrolysis rate. The hydrolysis rates observed with test compounds are then converted to "free thrombin" values in the respective assays by use of the standard curves. The bound thrombin (bound to test compound) is calculated by subtracting the amount of free thrombin observed in each assay from the known initial amount of thrombin used in the assay. The amount of free inhibitor in each assay is calculated by subtracting the number of moles of bound thrombin from the number of moles of added inhibitor (test compound). […]
Kass is calculated for a range of concentrations of test compounds and the mean value reported in units of liter per mole.

[2] = molecular target: factor Xa; assay: Inhibition of factor Xa amidase activity, chromogenic substrate (Kass); assay type: biochemical, human; settings: average of 3 assays; read-out: Kass, inhibitor of factor Xa (converted)
[3] = test system: rabbit AV shunt model; assay: Arterio-venous (AV) shunt model in the rabbit; assay type: in vivo; settings: i.v. infusion
From the text: Arterio-Venous (AV) Shunt Model in the Rabbit
Efficacy and potency of a compound are studied in a model of thrombosis in the anesthetized rabbit in which blood is shunted from the carotid artery through tubing to the left jugular vein. The shunt houses a thread upon which thrombotic material is deposited and is quantified in the presence and absence of a test compound. Specifically, the left jugular vein and right carotid artery are cannulated (PE 200 tubing, 22 cm). The tip of the arterial tubing is advanced approximately 1 cm and the tip of the venous tubing is advanced approximately 1 cm. The arterial and venous shunt segments are friction fitted into a center section of larger tubing (PE 260, 6 cm) with 4 strands of cotton thread (5.5 cm each), knotted together with a single knot at the end, in the lumen. Blood is circulated through the shunt for 15 min. The arterial and venous segments are clamped, the center section is detached, held vertically and the thread is carefully removed and weighed. The weight of a wet thread (38 mg, average of 10-4-stranded identical lengths) is subtracted from the total weight of the thread and thrombus. A drug is infused through a second catheter in the right jugular vein (2 cm inside vessel) starting 15 min before and throughout the 15 min period of blood circulation through the shunt. […]

Kd [1]: 2.84 nM | Kd [2]: 3.32 nM
Compound: N=C(N)NCCCC(NC(=O)[C@@H]1CCCN1C(=O)[C@@H]1NCC[C@H]2CCCC[C@H]21)C(=O)c1nc2ccccc2s1 (mixture of isomers) [DL-Arg-Ia, (1R,4aR,8aR)-Perhydroisoquinolin-1-ylcarbonyl-N-[(1RS)-4-[(aminoiminomethyl)amino]-1-(benzothiazol-2-ylcarbonyl)-butyl]-L-prolinamide. 1.5 H2 SO4]
ED50% (infusion dose to reduce thrombus weight by 50%) [3]: 0.008 mg/kg/h
